Laboratory results taken from PubChem BioAssay (NCI).
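Where inhibition never reached the appropriate level, the endpoint shown equals the highest concentration tested. Otherwise, values were interpolated linearly from a five-concentration, 48-hour dose response in 96-well plates. GI50 is the concentration that inhibits growth by half. TGI: concentration producing complete growth inhibition.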

Legend:
Test in all cases: NCI anticancer screen, dose series, 48 h
SR leukemia = tested on: SR leukemia
HL-60(TB) leukemia = tested on: HL-60(TB) leukemia
UACC-62 melanoma = tested on: UACC-62 melanoma
SK-MEL-5 melanoma = tested on: SK-MEL-5 melanoma
SNB-19 CNS = tested on: SNB-19 CNS
MDA-MB-231 breast = tested on: MDA-MB-231 breast
M14 melanoma = tested on: M14 melanoma
OVCAR-3 ovarian = tested on: OVCAR-3 ovarian
K-562 leukemia = tested on: K-562 leukemia
NCI-H226 lung = tested on: NCI-H226 lung

Row | SMILES | TGI (SR leukemia) [µM] | TGI (HL-60(TB) leukemia) [µM] | TGI (UACC-62 melanoma) [µM] | TGI (SK-MEL-5 melanoma) [µM] | TGI (SNB-19 CNS) [µM] | TGI (MDA-MB-231 breast) [µM] | TGI (M14 melanoma) [µM] | TGI (OVCAR-3 ovarian) [µM] | TGI (K-562 leukemia) [µM] | GI50 (SR leukemia) [µM] | GI50 (UACC-62 melanoma) [µM] | GI50 (SK-MEL-5 melanoma) [µM] | GI50 (SNB-19 CNS) [µM] | GI50 (M14 melanoma) [µM] | GI50 (NCI-H226 lung) [µM] | TGI (NCI-H226 lung) [µM] | GI50 (OVCAR-3 ovarian) [µM] | GI50 (K-562 leukemia) [µM] | GI50 (MDA-MB-231 breast) [µM]
1 | NCCCN1CCN(CCCNc2ccc3ncn4c5ccccc5c(=O)c2c34)CC1 | > 25 | 10.1 | 6.18 | 4.38 | 4.46 | 3.71 | 8.05 | > 25 | > 25 | – | – | – | – | – | – | – | – | – | –
2 | CCC[CH2][Ge]([CH2]CCC)([CH2]CCC)[O]C(=O)CCl | 68.5 | – | 8.67 | 3.36 | 22.9 | – | 6.94 | 16.3 | 31.6 | 0.836 | 1.07 | 0.305 | 10.8 | 1.25 | 14.1 | 31.5 | 2.33 | 0.879 | –
3 | CCCCC[C@@H]1OC(=O)[C@@]2(CC3c4ccccc4C2c2ccccc23)[C@H]1C(=O)OC | > 100 | 33.1 | > 100 | 39.2 | > 100 | > 100 | > 100 | > 100 | > 100 | – | – | – | – | – | – | – | – | – | –
4 | CC1Oc2c(c(O)cc3oc(=O)cc(-c4ccccc4)c23)C(=O)C1C (stereo unspecified) | – | > 100 | > 100 | > 100 | – | – | > 100 | > 100 | > 100 | – | – | – | – | – | – | > 100 | – | – | –
5 | COc1ccc(C2=C(N)c3ccccc3C2=O)cc1 | > 100 | > 100 | > 100 | > 100 | 64.3 | > 100 | > 100 | > 100 | – | – | – | – | – | – | – | > 100 | – | – | –
6 | CCCS(=O)OC1C(C2COC(C)(C)O2)OC2OC(C)(C)OC21 (stereo unspecified) | 4.34 | – | 35.2 | 27.7 | 30.8 | 32.6 | 37.8 | 29.3 | > 100 | – | – | – | – | – | – | 46.2 | – | – | –
7 | Fc1ccccc1C1SCC2=Nc3ccccc3CN21 (stereo unspecified) | > 100 | > 100 | > 100 | > 100 | > 100 | > 100 | > 100 | > 100 | > 100 | – | – | – | – | – | – | – | – | – | –
8 | CN1C(C(=O)Nc2ccccn2)=C(O)c2ccccc2S1(=O)=O | > 100 | > 100 | > 100 | > 100 | > 100 | – | > 100 | > 100 | – | – | – | – | – | – | – | > 100 | – | – | –
9 | O=c1c2cc(Cl)ccc2n2nnc3ccc(NCCNCCO)c1c32 | – | 9.77 | 5.41 | 2.86 | 5.07 | 2.81 | 2.88 | 4.16 | 10.9 | – | – | – | – | – | – | 4.13 | – | – | –
10 | CC1=NN(C(=O)Cc2ccccc2)C(=O)/C1=C\c1cccc(O)c1 | > 100 | > 100 | – | > 100 | > 100 | – | > 100 | > 100 | > 100 | – | – | – | – | – | – | > 100 | – | – | –
11 | N#Cc1nc(Cc2cccs2)oc1N | > 100 | > 100 | > 100 | > 100 | > 100 | > 100 | > 100 | – | > 100 | – | – | – | – | – | – | – | – | – | –
12 | C=C1C(=O)OC2C1CC1OC2C(C)CCC/C(C)=C\CCC1(C)O (stereo unspecified) | – | 21.2 | 26.4 | 12.4 | 103 | – | – | 32.6 | 48.5 | – | – | – | – | – | – | 51.3 | – | – | –
13 | Cn1c(=O)n2n(c1=O)C1C(=CC2)C2C=CC1n1c(=O)n(C)c(=O)n12 (stereo unspecified) | – | > 100 | > 100 | > 100 | > 100 | > 100 | > 100 | > 100 | > 100 | – | – | – | – | – | – | > 100 | – | – | –
14 | Cc1ccc(Oc2cc(C)ccc2P(=O)(O)O)cc1 | – | > 100 | > 100 | > 100 | > 100 | > 100 | > 100 | > 100 | > 100 | – | – | – | – | – | – | > 100 | – | – | –
15 | NC(Cc1ccccc1)C(=O)O (stereo unspecified) | – | > 100 | > 100 | > 100 | > 100 | > 100 | > 100 | > 100 | > 100 | – | – | – | – | – | – | > 100 | – | – | –
16 | C#Cc1ccccc1C(=O)OC | > 100 | > 100 | > 100 | > 100 | > 100 | – | > 100 | > 100 | > 100 | – | – | – | – | – | – | > 100 | – | – | –
17 | Brc1ccc2[nH]cc(-c3nc(-c4c[nH]c5ccncc45)cs3)c2c1 | – | – | – | 2.98 | – | 2.95 | 3.42 | – | 3.38 | – | – | 1.61 | – | 1.83 | – | – | – | 0.98 | 1.52
18 | COc1ccc(CNc2cnc3cc(N)ccc3n2)cc1OC | > 100 | > 100 | – | > 100 | > 100 | – | > 100 | > 100 | > 100 | – | – | – | – | – | – | > 100 | – | – | –
19 | CC1(C)CN=C(c2ccc3ccccc3c2O)N1 | > 100 | > 100 | > 100 | > 100 | > 100 | > 100 | > 100 | > 100 | > 100 | – | – | – | – | – | – | – | – | – | –
20 | C[N+](C)(C)c1nc(N)nc2c1ncn2C1OC(CO)C(O)C1O (stereo unspecified) | > 100 | – | > 100 | > 100 | > 100 | > 100 | > 100 | > 100 | > 100 | – | – | – | – | – | – | – | – | – | –
21 | COC(=O)[C@]12CCC(=O)N1[C@H](C(=O)O)Cc1c2[nH]c2ccccc12 | > 100 | – | > 100 | > 100 | > 100 | > 100 | > 100 | > 100 | > 100 | – | – | – | – | – | – | – | – | – | –
22 | Cc1ccc(NC(=O)NC23CC4CC(CC(F)(C4)C2)C3)cc1 | – | > 100 | > 100 | > 100 | > 100 | – | > 100 | > 100 | > 100 | – | – | – | – | – | – | – | – | – | –
23 | Cc1cc(C(C)(C)C)c(OCCCN2CCOCC2)c(C(C)(C)C)c1 | 47 | 29 | 29.8 | 30 | 32.1 | 32.2 | 31.7 | 36.1 | 33.3 | – | – | – | – | – | – | – | – | – | –
